# Molecular target: Wee1 (Homo sapiens (Human), UniProt P30291)
# Test: In vitro enzymatic inhibitory activity (33P-ATP filter-binding kinase assay, MBP substrate)
# Assay type: biochemical
# Conditions: Wee-1 150 nM, MBP 20 μM
# Method: The compounds of the present invention for experimental use were all self-prepared, and their chemical names and structural formulas are shown in the preparation embodiments of the respective compounds. The experimental tests were carried out in Reaction Biology Corporation, USA, and the experimental results were provided by the company. Basic reaction buffer: 20 mM hydroxyethylpiperazine ethanesulfuric acid (pH 7.5), 10 mM magnesium chloride, 1 mM EGTA, 0.02% Brij35, 0.02 mg/mL bovine serum albumin, 0.1 mM Na3VO4, 2 mM DTT, 1% DMSO Enzyme: Wee-1 concentration is 150 nM Matrix: MBP concentration is 20 μM The tested compound was formulated into a 5 mM solution with 100% DMSO, and a 10 points 3-fold gradient dilution was performed with DMSO through an automated pipetting station epMotion 5070. 1. Fresh matrix configuration reaction buffer was prepared; 2. The Wee-1 was added into the matrix solution and shaked gently; 3. DMSO solution of the compound were added into the kinase reaction mixture using an acoustic technique (Echo 550; nanoliter range) and incubated for 20 minutes at room temperature; 4. ^33P-ATP (specific activity, 10 μCi/μL) was added into the reaction mixture to stimulate the reaction; 5. Incubated for 2 hours at room temperature; 6. Kinase activity was detected by filter-binding method.
# Chain of Wee1 (P30291 whole entry): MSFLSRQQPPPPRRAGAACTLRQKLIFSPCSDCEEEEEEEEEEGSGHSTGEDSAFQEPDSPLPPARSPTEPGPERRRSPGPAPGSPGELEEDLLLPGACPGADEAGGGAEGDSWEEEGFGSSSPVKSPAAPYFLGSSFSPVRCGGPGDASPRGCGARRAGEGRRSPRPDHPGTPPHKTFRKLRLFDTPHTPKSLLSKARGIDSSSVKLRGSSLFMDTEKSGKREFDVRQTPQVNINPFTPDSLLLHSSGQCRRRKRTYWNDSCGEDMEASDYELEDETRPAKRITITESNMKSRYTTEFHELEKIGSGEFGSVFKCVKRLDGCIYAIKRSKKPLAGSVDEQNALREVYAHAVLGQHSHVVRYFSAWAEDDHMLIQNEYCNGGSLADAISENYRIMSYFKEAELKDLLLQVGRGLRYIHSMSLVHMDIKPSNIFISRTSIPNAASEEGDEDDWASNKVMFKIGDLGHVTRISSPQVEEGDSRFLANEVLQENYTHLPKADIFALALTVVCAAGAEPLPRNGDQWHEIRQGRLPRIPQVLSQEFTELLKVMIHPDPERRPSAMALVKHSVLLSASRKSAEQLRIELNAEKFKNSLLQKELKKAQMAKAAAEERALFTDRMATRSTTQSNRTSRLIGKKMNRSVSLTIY
row,IC50,Structure (SMILES)
1,251 nM,"C=CCn1c(=O)c2cnc(Nc3ccc(N4CCC5(CCN(C)CC5)CC4)cc3)nc2n1-c1ncccn1 [Embodiment 4, 2-allyl-6-((4-(9-methyl-3,9-diazaspiro[5.5]undecan-3-yl)phenyl)amino)-1-(pyrimidin-2-yl)-1H-pyazolo[3,4-d]pyrimidine-3(2H)-one]"
2,102 nM,"C=CCn1c(=O)c2cnc(Nc3ccc(N4CCC5(CCN(C)CC5)CC4)cc3)nc2n1-c1cncnc1 [Embodiment 6, 2-allyl-6-((4-(9-methyl-3,9-diazaspiro[5.5]undecan-3-yl)phenyl)amino)-1-(pyrimidin-5-yl)-1H-pyrazolo[3,4-d]pyrimidin-3(2H)-one]"
3,51.9 nM,"C=CCn1c(=O)c2cnc(Nc3ccc(N4CCC5(CCN(C)CC5)CC4)cc3)nc2n1-c1ccsc1 [Embodiment 8, 2-allyl-6-((4-(9-methyl-3,9-diazaspiro[5.5]undecan-3-yl)phenyl)amino)-1-(thiophen-3-yl)-1H-pyrazolo[3,4-d]pyrimidin-3(2H)-one]"
4,109 nM,"C=CCn1c(=O)c2cnc(Nc3ccc(N4CCC5(CCN(C)CC5)CC4)cc3)nc2n1-c1nccs1 [Embodiment 9, 2-allyl-6-((4-(9-methyl-3,9-diazaspiro[5.5]undecan-3-yl)phenyl)amino)-1-(thiazol-2-yl)-1H-pyrazolo[3,4-d]pyrimidin-3(2H)-one]"
5,48.1 nM,"C=CCn1c(=O)c2cnc(Nc3ccc(N4CCC5(CCN(C)CC5)CC4)cc3)nc2n1-c1cccc(Cl)c1 [Embodiment 11, 2-allyl-1-(3-chlorophenyl)-6-((4-(9-methyl-3,9-diazaspiro[5.5]undecan-3-yl)phenyl)amino)-1H-pyrazolo[3,4-d]pyrimidin-3(2H)-one]"
6,47.8 nM,"C=CCn1c(=O)c2cnc(Nc3ccc(N4CCC5(CCN(C)CC5)CC4)cc3)nc2n1-c1cccc(C(=O)NC)n1 [Embodiment 14, 6-(2-allyl-6-((4-(9-methyl-3,9-diazaspiro[5.5]undecan-3-yl)phenyl)amino)-3-oxo-2,3-dihydro-1H-pyrazolo[3,4-d]pyrimidin-1-yl)-N-methylpicolinamide]"
7,83.2 nM,"CCn1c(=O)c2cnc(Nc3ccc(N4CCC5(CCN(C)CC5)CC4)cc3)nc2n1-c1ccccc1 [Embodiment 19, 2-ethyl-6-((4-(9-methyl-3,9-diazaspiro[5.5]undecan-3-yl)phenyl)amino)-1-phenyl-1H-pyrazolo[3,4-d](2H)-one]"
8,239 nM,"CN1CCC2(CC1)CCN(c1ccc(Nc3ncc4c(=O)n(CC(F)F)n(-c5ccccc5)c4n3)cc1)CC2 [Embodiment 22, 2-(2,2-difluroethyl)-6-((4-(9-methyl-3,9-diazaspiro[5.5]undecan-3-yl)phenyl)amino)-1-phenyl-1H-pyrazolo[3,4-d](2H)-one]"
9,79.6 nM,"CN1CCC2(CC1)CCN(c1ccc(Nc3ncc4c(=O)n(Cc5ccccc5)n(-c5ccccc5)c4n3)cc1)CC2 [Embodiment 23, 2-benzyl-6-((4-(9-methyl-3,9-diazaspiro[5.5]undecane-3-yl)phenyl)amino)-1-phenyl-1H-pyrazolo[3,4-d](2H)-one]"
10,48.8 nM,"CCCn1c(=O)c2cnc(Nc3ccc(N4CCC5(CCN(C)CC5)CC4)cc3)nc2n1-c1cccc(C(C)(C)O)n1 [Embodiment 24, 1-(6-(2-hydroxypropan-2-yl)pyridin-2-yl)-6-((4-(9-methyl-3,9-diazaspiro[5.5]undecan-3-yl)phenyl)amino)-2-propyl-1H-pyrazolo[3,4-d]pyrimidin-3(2H)-one]"
11,13.2 nM,"C=CCn1c(=O)c2cnc(Nc3ccc(N4CCC5(CCN(C)CC5)CC4)cc3)nc2n1-c1ccc(F)cn1 [Embodiment 28, 2-allyl-1-(5-fluoropyridin-2-yl)-6-((4-(9-methyl-3,9-diazaspiro[5.5]undecan-3-yl)phenyl)amino)-1H-pyrazolo[3,4-d]pyrimidin-3(2H)-one]"
12,120 nM,"C=CCn1c(=O)c2cnc(Nc3ccc(N4CCC5(CCN(C)CC5)CC4)c(F)c3)nc2n1-c1cccc(C(C)(C)O)n1 [Embodiment 34, 2-allyl-6((3-fluoro-4-(9-methyl-3,9-diazaspiro[5.5]undecan-3-yl)phenyl)amino)-1-(6-(2-hydroxypropan-2-yl)pyridin-2-yl)-1H-pyrazolo[3,4-d]pyrimidin-3(2H)-one]"
13,241 nM,"C=CCn1c(=O)c2cnc(Nc3ccc(N4CCC5(CCN(C)CC5)CC4)cc3C)nc2n1-c1cccc(C(C)(C)O)n1 [Embodiment 35, 2-allyl-1-(6-(2-hydroxypropan-2-yl)pyridin-2-yl)-6((2-methyl-4-(9-methyl-3,9-diazaspiro[5.5]undecan-3-yl)phenyl)amino)-1H-pyrazolo[3,4-d]pyrimidine-3(2H)-one]"

# Further lines, the molecule ahead of its results:
row,Structure (SMILES),IC50
1,"C=CCn1c(=O)c2cnc(Nc3ccc(N4CCC5(CCN(C)CC5)CC4)cc3)nc2n1-c1cccs1 [Embodiment 7, 2-allyl-6-((4-(9-methyl-3,9-diazaspiro[5.5]undecan-3-yl)phenyl)amino)-1-(thiophen-2-yl)-1H-pyrazolo[3,4-d]pyrimidin-3(2H)-one]",82.5 nM
2,"C=CCn1c(=O)c2cnc(Nc3ccc(N4CCC5(CCN(C)CC5)CC4)cc3)nc2n1-c1ccc(Cl)cc1 [Embodiment 12, 2-allyl-1-(4-chlorophenyl)-6-((4-(9-methyl-3,9-diazaspiro[5.5]undecan-3-yl)phenyl)amino)-1H-pyrazolo[3,4-d]pyrimidin-3(2H)-one]",25.3 nM
3,"C=CCn1c(=O)c2cnc(Nc3ccc(N4CCC5(CCN(C)CC5)CC4)cc3)nc2n1-c1cccc(C(N)=O)n1 [Embodiment 13, 6-(2-allyl-6-((4-(9-methyl-3,9-diazaspiro[5.5]undecan-3-yl)phenyl)amino)-3-oxo-2,3-dihydro-1H-pyrazolo[3,4-d]pyrimidin-1-yl)picolinamide]",42 nM
4,"C=CCn1c(=O)c2cnc(Nc3ccc(N4CCC5(CCN(C)CC5)CC4)cc3)nc2n1-c1cccc(C(N)=O)c1 [Embodiment 16, 3-(2-allyl-6-((4-(9-methyl-3,9-diazaspiro[5.5]undecan-3-yl)phenyl)amino)-3-oxo-2,3-dihydro-1H-pyrazolo[3,4-d]pyrimidin-1-yl)benzamide]",52.8 nM
5,"C=CCn1c(=O)c2cnc(Nc3ccc(N4CCC5(CCN(C)CC5)CC4)cc3)nc2n1-c1cccc(C(=O)NC)c1 [Embodiment 17, 3-(2-allyl-6-((4-(9-methyl-3,9-diazaspiro[5.5]undecan-3-yl)phenyl)amino)-3-oxo-2,3-dihydro-1H-pyrazolo[3,4-d]pyrimidin-1-yl)-N-methylbenzamide]",42.5 nM
6,"CN1CCC2(CC1)CCN(c1ccc(Nc3ncc4c(=O)n(C)n(-c5ccccc5)c4n3)cc1)CC2 [Embodiment 18, 2-methyl-6-((4-(9-methyl-3,9-diazaspiro[5.5]undecane-3-yl)phenyl)amino)-1-phenyl-1H-pyrazolo[3,4-d](2H)-one]",131 nM
7,"C=CCn1c(=O)c2cnc(Nc3ccc(N4CCC5(CCN(C)CC5)CC4)cc3)nc2n1-c1cccc(Cl)n1 [Embodiment 25, 2-allyl-1-(6-chloropyridin-2-yl)-6-((4-(9-methyl-3,9-diazaspiro[5.5]undecan-3-yl)phenyl)amino)-1H-pyrazolo[3,4-d]pyrimidin-3(2H)-one]",20.4 nM
8,"C=CCn1c(=O)c2cnc(Nc3ccc(N4CCC5(CCN(C)CC5)CC4)cc3)nc2n1-c1ccc(Cl)cn1 [Embodiment 26, 2-allyl-1-(5-chloropyridin-2-yl)-6-((4-(9-methyl-3,9-diazaspiro[5.5]undecan-3-yl)phenyl)amino)-1H-pyrazolo[3,4-d]pyrimidin-3(2H)-one]",14.1 nM
9,"C=CCn1c(=O)c2cnc(Nc3ccc(N4CCC5(CCN(C)CC5)CC4)cc3)nc2n1-c1cccc(F)n1 [Embodiment 27, 2-allyl-1-(6-fluoropyridin-2-yl)-6-((4-(9-methyl-3,9-diazaspiro[5.5]undecane-3-yl)phenyl)amino)-1H-pyrazolo[3,4-d]pyrimidin-3(2H)-one]",24.9 nM
10,"C=CCn1c(=O)c2cnc(Nc3ccc(N4CCC5(CCN(C(=O)OC)CC5)CC4)cc3)nc2n1-c1cccc(C(C)(C)O)n1 [Embodiment 31, methyl-9-(4-((2-allyl-1-(6-(2-hydroxypropan-2-yl)pyridin-2-yl)-3-oxo-2,3-dihydro-1H-pyrazolo[3,4-d]pyrimidin-6-yl)amino)phenyl)-3,9-diazaspiro[5.5]undecan-3-ethyl carboxylate]",15 nM
11,"C=CCn1c(=O)c2cnc(Nc3ccc(N4CCC5(CCN(C)CC5)CC4)c(C)c3)nc2n1-c1cccc(C(C)(C)O)n1 [Embodiment 36, 2-allyl-1-(6-(2-hydroxypropan-2-yl)pyridin-2-yl)-6((3-methyl-4-(9-methyl-3,9-diazaspiro[5.5]undecan-3-yl)phenyl)amino)-1H-pyrazolo[3,4-d]pyrimidine-3(2H)-one]",57.1 nM
12,"C=CCn1c(=O)c2cnc(Nc3ccc(N4CCC5(CCN(C)CC5)CC4)cc3OC)nc2n1-c1cccc(C(C)(C)O)n1 [Embodiment 37, 2-allyl-1-(6-(2-hydroxypropan-2-yl)pyridin-2-yl)-6((2-methoxy-4-(9-methyl-3,9-diazaspiro[5.5]undecan-3-yl)phenyl)amino)-1H-pyrazolo[3,4-d]pyrimidin-3(2H)-one]",328 nM
13,"C=CCn1c(=O)c2cnc(Nc3ccc(N4CCC5(CCN(C)CC5)CC4)c(OC)c3)nc2n1-c1cccc(C(C)(C)O)n1 [Embodiment 38, 2-allyl-1-(6-(2-hdyroxypropan-2-yl)pyridin-2-yl)-6((3-methoxy-4-(9-methyl-3,9-diazaspiro[5.5]undecan-3-yl)phenyl)amino)-1H-pyrazolo[3,4-d]pyrimidine-3(2H)-one]",20.7 nM

# Source: patent publication US10954253B2, “1,2-dihydro-3H-pyrazolo[3,4-d]pyrimidin-3-one derivative as Wee1 inhibitor” (SHIJIAZHUANG SAGACITY NEW DRUG DEVELOPMENT CO., LTD., priority 2017, dated 2021)
